From patent publication US8580776B2, “Compositions and methods for treating neurodegenerating diseases” (The Board of Trustees of the University of Illinois, priority 2007, dated 2013)

Legend:
IκBα = assay: QPCR of IκBα mRNA in frontal cortex of DSP4-treated rats; format: in vivo, rat
Procedure: (§1) In this experiment, the effects of DSP4 on tyrosine hydroxylase (TH) and IkBα expression were analyzed. Adult rat Sprague Dawley rats were treated with the selective neurotoxin DSP4 to lesion locus ceruleus (LC) noradrenergic neurons and deplete cortical NA levels as described in Example 1.
(§2) RNA samples from control or DSP4-treated rats (n=4 each) were converted to cDNA and analyzed by QPCR for relative levels of tyrosine hydroxylase (TH) (FIG. 6A) in the locus ceruleus (LC).
(§3) Total cytoplasmic RNA from tissues was prepared from cells using TRIZOL reagent according to manufacturer procedures (Invitrogen/GIBCO); aliquots were converted to cDNA using random hexamer primers, and mRNA levels were estimated by quantitative touchdown PCR (QPCR). Conditions were 35 cycles of denaturation at 94° C. for 10 s; annealing at 58-64° C. for 15 s; and extension at 72° C. for 20 s on a Corbett Rotorgene Real-Time PCR unit (Corbett, Australia). The PCR mastermix contained SYBR Green (1 μl diluted 1:10,000 SybrGreen I 10,000× concentrate, Molecular Probes, Eugene, Oreg.). Relative mRNA concentrations were calculated from the takeoff point of reactions using manufacturer's software. Melting curve analysis and agarose gel electrophoresis were performed to ensure production of single and corrected size products. […]

astrocyte marker GFAP = assay: Glial activation: GFAP staining of brain sections; format: in vivo, mice
Procedure: The effects of DSP4 treatment on glial activation were assessed in hippocampus and frontal cortex by staining for microglial marker Mac1 and astrocyte marker GFAP (FIG. 3). Sections from vehicle and DSP4 treated H6 mice brains were stained with antibodies directed against Mac1 to assess microglial activation (FIG. 3A-C); and GFAP to assess astrocyte activation (FIG. 3D-F). […] FIGS. 3G-3I show quantitative analysis of Mac1 (FIG. 3G-3H) and GFAP staining (FIG. 31).
Hemibrains were fixed overnight in 4% paraformaldehyde in 0.1M phosphate buffer, then overnight in 10% sucrose in 0.1M phosphate buffer, and then frozen in isopentane at −30° C. Serial sections (35 um thick) were prepared on a cryostat, and stored in cryoprotective solution (0.1M phosphate buffer: ethyleneglycol:glycerol 30:40:30) at −20° C. […] Staining was quantified using software provided by the manufacturer (Zeiss AxioVision). GFAP and Mac1 staining was quantified in 3 different areas on each of 4 serial sections for each animal (n=3 or 4 for Mac1; n=7 or 9 for GFAP staining) The data was average area stained per section (as % total area) from DSP4-treated (n=3 for Mac1; n=7 for GFAP) and vehicle-treated (n=4 for Mac1; n=9 for GFAP) mice. […]

[1] = tested on: tyrosine hydroxylase (TH); assay: QPCR of tyrosine hydroxylase mRNA in DSP4-treated rats; format: in vivo, rat
Procedure: as §1, §2
as §3, with “products. Relative mRNA values were normalized to housekeeping genes, either α-Tubulin (α-Tub), β-Actin (βAct) or glyceraldehyde-3-phosphate dehydrogenase (GDH). The primers used for QPCR (all listed 5′ to 3′) were:” for “products.”
After acclimation (7-10 days), rats received two intraperitoneal injections (one week apart) of either N-(2-chloroethyl)-N-ethyl-2 bromobenzylamine (DSP4, 5 mg/kg) dissolved in PBS or PBS alone (FIG. 6A). Four weeks after the second treatment, the animals were anesthetized with pentobarbital (50 mg/kg i.p.), and placed in a stereotaxic frame (Stoelting, USA) on a heating blanket. Body temperature was maintained at 37±0.5° C. for the time of surgery. […]

EAE mice = assay: NA depletion with DSP4 in EAE (MOG35-55 immunized mice); format: in vivo; conditions: DSP4 50 mg/kg i.p. twice one week apart, MOG immunization 2 weeks later; versus vehicle
neprilysin (NEP) = assay: QPCR of neprilysin mRNA in brain samples; format: in vivo, mice; conditions: cortical samples, versus vehicle
Procedure: Total cytoplasmic RNA from tissues was isolated using TRIZOL reagent, (Invitrogen/GIBCO); aliquots were converted to cDNA using random hexamer primers, and mRNA levels were estimated by quantitative touchdown PCR (QPCR). PCR conditions were 35 cycles of denaturation at 94° C. for 10 s; annealing at 58-64° C. for 15 s; and extension at 72° C. for 20 s on a Corbett Rotorgene Real-Time PCR unit (Corbett, Australia). PCR was done using Taq DNA Polymerase (Invitrogen), and contained SYBR Green (SybrGreen1 10,000× concentrate, diluted 1:10,000; Molecular Probes, Eugene, Oreg.). Relative mRNA concentrations were calculated from the takeoff point of reactions using manufacturer's software, and were normalized to α-tubulin, β-actin, and glyceraldehyde-3-phosphate dehydrogenase (GDH). Melting curve analysis and agarose gel electrophoresis ensured production of single and corrected size products. The primers used were: […]
Comparative real time RT-PCR (or quantitative PCR, QPCR) was used to measure mRNA levels of the Aβ degrading enzymes neprilysin (Nep) and insulin degrading enzyme (IDE) in brain samples from vehicle and DSP4 treated mice (FIG. 4A). […] To assess the effects of dose, mouse neuronal N2A cells were incubated with increasing does of NA for 24 hr after which NEP activity was measured (FIG. 4D, data is mean±sd and is from n=3 samples). […]

`CCN(CCCl)Cc1ccccc1Br` [DSP4, N-(2-chloroethyl)-N-ethyl-2-bromobenzylamine] was tested, and the “cortical IκBα mRNA levels” value (IκBα; P<0.01) was 45 % versus control values, the “reduction of cortical IκBα mRNA levels” value (IκBα; versus control values, n=4, P<0.01) was 55% and the “GFAP staining, frontal cortex” value (astrocyte marker GFAP; low levels of staining, not shown) was “little effect”. The “increase in GFAP staining, hippocampus” value (astrocyte marker GFAP; versus vehicle, significant) was “approximately 68%”, the “TH mRNA levels in the LC” value ([1]; DSP4-treated rats, n=4) was 57 % versus control levels and the “reduction in cortical TH mRNA levels” value ([1]; not statistically significant, P>0.05) was 25%. The “reduction of LC TH mRNA” value ([1]; versus control values, n=4) was 43%, the “clinical signs of EAE” value (EAE mice) was “appeared sooner and were more severe” and the “reduction of NEP mRNA levels” value (neprilysin (NEP)) was “approximately 20%”.
